{
  "source": "patent US9078442B2",
  "about": "“Herbicidally and fungicidally active 3-phenylisoxazoline-5-carboxamides and 3-phenylisoxazoline-5-thioamides” (BAYER INTELLECTUAL PROPERTY GMBH, priority 2011, dated 2015)",
  "key": {"[1]": {"tested_on": "Peronospora parasitica", "experiment": "In vivo test Peronospora parasitica (downy mildew on cabbage), protective", "conditions": "evaluation 5 days after infection", "experimental": "In vivo test Peronospora parasitica (downy mildew on cabbage) To prepare an appropriate active compound formulation, the active compound is mixed with acetone/Tween/DMSO and the mixture is diluted with water to the desired concentration. Cabbage plants are cultivated in 50/50 peat/pozzolan soil in small pots at 18-20° C. and sprayed at the cotyledon stage at the respective stated application rates to test for protective activity. Control plants were treated in the same manner, but using an aqueous solution without any active compounds. 24 hours after the spraying, the plants were sprayed with a spore suspension of Peronospora parasitica (50 000 spores/ml). The plants were placed in a cabin at 20° C. in a humid atmosphere for 5 days."}, "[2]": {"tested_on": "Mycosphaerella graminicola", "experiment": "In vivo test Mycosphaerella graminicola (wheat)", "conditions": "Mycosphaerella graminicola on wheat, application rate 500 g/ha, evaluation 21-28 days after inoculation", "experimental": "Wheat plants (cultivar: (Scipion) are cultivated in 50/50 peat pozzolan substrate at 12° C. and sprayed at the 1-leaf stage with the active compound preparation as given in Example A. After 24 hours, the plants are sprayed with a spore suspension of Mycosphaerella graminicola (500 000 spores/ml)."}, "[3]": {"tested_on": "Alternaria brassicae", "experiment": "In vivo test Alternaria brassicae (salad radish)", "parameters": "concentration or dose not given beside the values", "conditions": "Alternaria brassicae on salad radish, application rate not given, evaluation 6-7 days after inoculation", "experimental": "Salad radish (cultivar Pernot) are cultivated in 50/50 peat pozzolan substrate at 18-20° C. and sprayed at the cotyledon stage with the active compound preparation given above. After 24 hours, the plants are sprayed with a spore suspension of Alternaria brassicae (40 000 spores/cm3). The inoculated plants are placed at 18° C. and in a humid atmosphere for 6-7 days. […] At an application rate of g/ha, the following efficacies are found for the following compounds."}, "[4]": {"tested_on": "Botrytis cinerea", "experiment": "In vivo test Botrytis cinerea (gray mold on cucumbers)", "conditions": "Botrytis cinerea on cucumber, evaluation 5-7 days after infection", "experimental": "Cucumber plants (Vert petit de Paris) are cultivated in 50/50 peat pozzolan substrate at 20-25° C. and sprayed at the Z16 stage with the active compound preparation given in Example 1. After 24 hours, the upper sides of the leaves of the plants are sprayed with a spore suspension of Botrytis cinerea (150 000 spores/ml). The spores of a 15-day old culture are collected and suspended in a nutrient solution consisting of • 20 g/l of gelatin; • 50 g/l of D-fructose; • 2 g/l of NH4NO3; • 1 g/L of KH2PO4. The inoculated cucumber plants are placed at 15-11° C. (day/night) and at 80% relative atmospheric humidity for 5-7 days."}},
  "data": [
    {"smiles": "CNC(=O)C1(C(F)(F)F)CC(c2cc(Cl)cc(Cl)c2)=NO1", "note": "(centres unmarked) [Example 8.025]", "values": [
      {"measurement": "Activity [%] (efficacy)", "setting": "[1]; application rate 500 g/ha", "result": 100, "unit": "%"}
    ]},
    {"smiles": "CCCn1cc(CNC(=O)C2(CC)CC(c3cc(Cl)cc(Cl)c3)=NO2)c(C)n1", "note": "(centres unmarked) [Example 2.257]", "values": [
      {"measurement": "Activity [%] (efficacy)", "setting": "[2]", "result": 79, "unit": "%"},
      {"measurement": "Activity [%] (efficacy)", "setting": "[1]; application rate 500 g/ha", "result": 99, "unit": "%"}
    ]},
    {"smiles": "O=C(NC1CC1)C1(C(F)(F)F)CC(c2cc(Cl)cc(Cl)c2)=NO1", "note": "(centres unmarked) [Example 8.052]", "values": [
      {"measurement": "Activity [%] (efficacy)", "setting": "[1]; application rate 1200 g/ha", "result": 100, "unit": "%"}
    ]},
    {"smiles": "CC(C)NC(=O)C1(C)CC(c2cc(F)cc(Cl)c2)=NO1", "note": "(centres unmarked) [Example 6.190]", "values": [
      {"measurement": "Activity [%] (efficacy)", "setting": "[1]; application rate 1200 g/ha", "result": 100, "unit": "%"}
    ]},
    {"smiles": "CCn1cc(CNC(=O)C2(C(F)(F)F)CC(c3cc(Cl)cc(Cl)c3)=NO2)c(C)n1", "note": "(centres unmarked) [Example 3.161]", "values": [
      {"measurement": "Activity [%] (efficacy)", "setting": "[1]; application rate 500 g/ha", "result": 100, "unit": "%"}
    ]},
    {"smiles": "CC1(C(=O)NCc2ccccc2C(=O)O)CC(c2cc(Cl)cc(Cl)c2)=NO1", "note": "(centres unmarked) [Example 1.315]", "values": [
      {"measurement": "Activity [%] (efficacy)", "setting": "[2]", "result": 100, "unit": "%"}
    ]},
    {"smiles": "Cc1cc(Cl)cc(C2=NOC(C)(C(=O)NC(C)C)C2)c1", "note": "(centres unmarked) [Example 6.192]", "values": [
      {"measurement": "Activity [%] (efficacy)", "setting": "[2]", "result": 97, "unit": "%"},
      {"measurement": "Activity [%] (efficacy)", "setting": "[1]; application rate 500 g/ha", "result": 96, "unit": "%"}
    ]},
    {"smiles": "CC1(C(=O)NC2CC2)CC(c2cc(Cl)cc(Cl)c2)=NO1", "note": "(centres unmarked) [Example 6.054]", "values": [
      {"measurement": "Activity [%] (efficacy)", "setting": "[2]", "result": 100, "unit": "%"},
      {"measurement": "Activity [%] (efficacy)", "setting": "[3]", "result": 94, "unit": "%"}
    ]},
    {"smiles": "CCn1cc(CNC(=O)C2(C(F)(F)F)CC(c3ccc(F)c(Cl)c3)=NO2)c(C)n1", "note": "(centres unmarked) [Example 3.170]", "values": [
      {"measurement": "Activity [%] (efficacy)", "setting": "[1]; application rate 500 g/ha", "result": 94, "unit": "%"}
    ]},
    {"smiles": "CC1(C(=O)Nc2cccc(CC(=O)O)c2)CC(c2cc(Cl)cc(Cl)c2)=NO1", "note": "(centres unmarked) [Example 1.036]", "values": [
      {"measurement": "Activity [%] (efficacy)", "setting": "[2]", "result": 73, "unit": "%"}
    ]},
    {"smiles": "CC1(C(=O)NCCCn2cccn2)CC(c2cc(Cl)cc(Cl)c2)=NO1", "note": "(centres unmarked) [Example 1.903]", "values": [
      {"measurement": "Activity [%] (efficacy)", "setting": "[2]", "result": 97, "unit": "%"},
      {"measurement": "Activity [%] (efficacy)", "setting": "[1]; application rate 500 g/ha", "result": 85, "unit": "%"}
    ]},
    {"smiles": "COC(=O)c1ccc(NC(=O)C2(C)CC(c3cc(Cl)cc(Cl)c3)=NO2)cc1", "note": "(centres unmarked) [Example 1.060]", "values": [
      {"measurement": "Activity [%] (efficacy)", "setting": "[4]; application rate 500 g/ha", "result": 100, "unit": "%"}
    ]},
    {"smiles": "CC(C)NC(=O)C1(C)CC(c2cc(Br)cc(C(F)(F)F)c2)=NO1", "note": "(centres unmarked) [Example 6.184]", "values": [
      {"measurement": "Activity [%] (efficacy)", "setting": "[2]", "result": 100, "unit": "%"}
    ]},
    {"smiles": "CCn1cc(CNC(=O)C2(C)CC(c3cc(C)cc(Cl)c3)=NO2)c(C)n1", "note": "(centres unmarked) [Example 1.181]", "values": [
      {"measurement": "Activity [%] (efficacy)", "setting": "[4]; application rate 500 g/ha", "result": 70, "unit": "%"},
      {"measurement": "Activity [%] (efficacy)", "setting": "[2]", "result": 85, "unit": "%"},
      {"measurement": "Activity [%] (efficacy)", "setting": "[1]; application rate 500 g/ha", "result": 100, "unit": "%"}
    ]},
    {"smiles": "CCOP(=O)(CNC(=O)C1(C)CC(c2cc(Cl)cc(Cl)c2)=NO1)OCC", "note": "(centres unmarked) [Example 6.433]", "values": [
      {"measurement": "Activity [%] (efficacy)", "setting": "[1]; application rate 500 g/ha", "result": 100, "unit": "%"}
    ]},
    {"smiles": "COc1cc(Cl)cc(C2=NOC(C)(C(=O)NC(C)C)C2)c1", "note": "(centres unmarked) [Example 6.191]", "values": [
      {"measurement": "Activity [%] (efficacy)", "setting": "[4]; application rate 1200 g/ha", "result": 100, "unit": "%"}
    ]},
    {"smiles": "Cn1nccc1CNC(=O)C1(C)CC(c2cc(Cl)cc(Cl)c2)=NO1", "note": "(centres unmarked) [Example 1.291]", "values": [
      {"measurement": "Activity [%] (efficacy)", "setting": "[1]; application rate 1200 g/ha", "result": 88, "unit": "%"}
    ]},
    {"smiles": "Cc1cc(CNC(=O)C2(C)CC(c3cc(Cl)cc(Cl)c3)=NO2)no1", "note": "(centres unmarked) [Example 1.421]", "values": [
      {"measurement": "Activity [%] (efficacy)", "setting": "[2]", "result": 87, "unit": "%"}
    ]},
    {"smiles": "CC1(C(=O)NCc2nc(C(F)(F)F)cs2)CC(c2cc(Cl)cc(Cl)c2)=NO1", "note": "(centres unmarked) [Example 1.379]", "values": [
      {"measurement": "Activity [%] (efficacy)", "setting": "[1]; application rate 500 g/ha", "result": 96, "unit": "%"}
    ]},
    {"smiles": "Cc1cc(Cl)cc(C2=NOC(C)(C(=O)NCC(F)(F)F)C2)c1", "note": "(centres unmarked) [Example 6.386]", "values": [
      {"measurement": "Activity [%] (efficacy)", "setting": "[2]", "result": 100, "unit": "%"}
    ]},
    {"smiles": "CNC(=O)C1(C)CC(c2cc(Br)cc(Br)c2)=NO1", "note": "(centres unmarked) [Example 6.022]", "values": [
      {"measurement": "Activity [%] (efficacy)", "setting": "[2]", "result": 98, "unit": "%"}
    ]},
    {"smiles": "Cc1cc(CNC(=O)C2(C)CC(c3cc(F)cc(F)c3)=NO2)n(C)n1", "note": "(centres unmarked) [Example 1.120]", "values": [
      {"measurement": "Activity [%] (efficacy)", "setting": "[1]; application rate 500 g/ha", "result": 99, "unit": "%"}
    ]},
    {"smiles": "Cc1n[nH]cc1CNC(=O)C1(C)CC(c2cc(F)cc(F)c2)=NO1", "note": "(centres unmarked) [Example 1.363]", "values": [
      {"measurement": "Activity [%] (efficacy)", "setting": "[1]; application rate 500 g/ha", "result": 71, "unit": "%"}
    ]},
    {"smiles": "CC(C)NC(=O)C1(C2CC2)CC(c2cc(Cl)cc(Cl)c2)=NO1", "note": "(centres unmarked) [Example 10.032]", "values": [
      {"measurement": "Activity [%] (efficacy)", "setting": "[1]; application rate 1200 g/ha", "result": 96, "unit": "%"}
    ]},
    {"smiles": "CC1(C(=O)NCc2ccncc2)CC(c2cc(Cl)cc(Cl)c2)=NO1", "note": "(centres unmarked) [Example 1.458]", "values": [
      {"measurement": "Activity [%] (efficacy)", "setting": "[1]; application rate 1200 g/ha", "result": 81, "unit": "%"}
    ]},
    {"smiles": "COC(=O)Cc1cccc(NC(=O)C2(C)CC(c3cc(Cl)cc(Cl)c3)=NO2)c1", "note": "(centres unmarked) [Example 1.035]", "values": [
      {"measurement": "Activity [%] (efficacy)", "setting": "[4]; application rate 500 g/ha", "result": 89, "unit": "%"},
      {"measurement": "Activity [%] (efficacy)", "setting": "[2]", "result": 91, "unit": "%"}
    ]},
    {"smiles": "CCn1cc(CNC(=O)C2(COC)CC(c3cc(Cl)cc(Cl)c3)=NO2)c(C)n1", "note": "(centres unmarked) [Example 5.029]", "values": [
      {"measurement": "Activity [%] (efficacy)", "setting": "[1]; application rate 500 g/ha", "result": 87, "unit": "%"}
    ]},
    {"smiles": "CC1(C(=O)Nc2ccc(C(=O)O)cc2)CC(c2cc(Cl)cc(Cl)c2)=NO1", "note": "(centres unmarked) [Example 1.064]", "values": [
      {"measurement": "Activity [%] (efficacy)", "setting": "[4]; application rate 500 g/ha", "result": 100, "unit": "%"},
      {"measurement": "Activity [%] (efficacy)", "setting": "[2]", "result": 75, "unit": "%"},
      {"measurement": "Activity [%] (efficacy)", "setting": "[1]; application rate 500 g/ha", "result": 95, "unit": "%"}
    ]},
    {"smiles": "CC(C)n1cc(CNC(=O)C2(C)CC(c3cccc(F)c3)=NO2)c(Cl)n1", "note": "(centres unmarked) [Example 1.341]", "values": [
      {"measurement": "Activity [%] (efficacy)", "setting": "[1]; application rate 500 g/ha", "result": 95, "unit": "%"}
    ]}
  ]
}
